Experimental data published in US12281093B2, “3-(1,2,3,6-tetrahydropyridin-2-YL) pyridine glutarate or a pharmaceutically acceptable solvate thereof” (PHILIP MORRIS PRODUCTS S.A., priority 2018, dated 2025).
Where two headings read alike, the source gives them in different places.

Columns and labels:
[1] = Hygroscopicity of comparative anatabine salts (handling observation); type: physicochemical
Description: Anatabine free base (160 mg, 1 mmol) was dissolved in anhydrous acetone (2.5 ml). To the formed solution was added a solution of anhydrous citric acid (192 mg, 1 mmol) in anhydrous acetone (3 ml, required sonication) with stirring under nitrogen. The mixture was stirred for 2 hours and then filtered under a blanket of nitrogen. The solid was washed with a small quantity of anhydrous acetone and dried in vacuo. A yield of 340 mg (96.6%) of anatabine citrate was achieved. […] Chemical structure and stoichiometry was confirmed by proton NMR. The solid form of the citrate contains captured acetone.

[2] = Forced degradation trial by HPLC-UV; type: physicochemical; conditions: oxidized sample, 3% hydrogen peroxide added; T=0, 4 and 18 hours; only condition of acid, base, control, heat, oxidation with degradation
Description: For evaluation of stability by HPLC-UV, 200 μg/ml sample solution of anatabine and anatabine glutarate were prepared in duplicate by weighing approximately 10 mg and dissolving in 50 ml volumetric flask and bringing to the volume with deionized water. During the HPLC method optimization the run time and gradient have been adjusted for stability analysis. After the method optimization, a forced degradation trial was run to aid the planned stability assessment analysis by identifying any degradants or impurities present in the anatabine glutarate sample. The forced degradation trial analyzed samples under five conditions—acid, base, control, heat and oxidation—and were tested at T=0, 4 and 18 hours.

[3] = Dynamic vapor sorption (DVS) testing; type: physicochemical; conditions: for mass gain between the starting weight and the end weight: DVS double cycle, final mass vs starting mass
Description: Anatabine glutarate (20 mg) was dispensed directly into a pre-weighed sample pan and transferred to the instrument (DVS1 Advantage). Double cycle 0-90-O-90-0% RH method with 10% RH steps was applied.
Dynamic vapor sorption (DVS) was performed on SMS DVS dynamic vapor sorption instrument using DVS control software v1.0.6.0. 30 mg of sample was weighed in stainless steel DVS basket before submitting for analysis. The samples were analyzed over the range of 0-90/RH with a maximum time of 6 hours per humidity stage. Each sample was exposed to a double cycle. Analysis was performed as a weight percent change from 0-90% RH with isothermal plots also being examined. XRPD analysis of all samples was performed post-DVS.
This indicates a gain of moisture.
This was further confirmed by an isotherm plot of this sample.
When comparing X-ray diffraction patterns of the sample before and after DVS a match was observed.

[4] = Stability assessment at accelerated conditions (40° C./75% RH, 7 days): visual, TGA, XRPD; type: physicochemical
Description: Anatabine glutarate was analyzed at T=0, and an aliquot subsequently stored in a glass vial with a screw cap lid at accelerated conditions (40° C./75% RH) in an incubator for 7 days prior to further analysis. […] The stored sample was also assessed at T=0 and again post T=7 days using TGA, XRPD and HPLC-UV.
Powder X-ray diffraction (XRPD) was performed on Bruker D8 Advance XRPD using 9 mm cavity and flat plate sample holders. Samples were prepared by coating them onto sample holders fitted with a zero background silicon wafer (5 1 0). Analysis was performed using a Cu Kα X-Ray source which operated at 40 kV at 40 mA and a Lynx Eye TM detector, all samples were analyzed over the range 2-40° 20.
Thermogravimetric Analysis (TGA) was performed on Perkin Elmer PYRIS 1 TGA using 40 μL aluminum pans (vented) in ceramic crucibles. The samples were heated from room temperature to 400° C. at 10° C./min (unless otherwise stated) under a stream of nitrogen gas.

[5] = Ambient stability assessment, open Petri dish, 7 days; type: physicochemical; conditions: ambient conditions, open in a fume hood, T=0, 3 and 7 days
Description: For ambient stability assessment, anatabine glutarate (100 mg) was weighed into a clear glass Petri dish and retained at ambient conditions, open in a fume hood for 7 days. The stored sample was visually assessed at T=0, 3 and 7 days. No change in the color or any evidence of deliquescence were observed (FIG. 12).

nuclear factor κB (NFKB) = conditions: cited from earlier work
STAT3 and NFkB signaling = conditions: periphery and CNS, via regulation of STAT3 and NFkB signaling; cited from earlier work
[6] = in vivo; cited from earlier work
[7] = stored at 40° C./75% RH for 7 days

anatabine citrate
hygroscopicity [1]: extremely hygroscopic
hygroscopicity ([1]; listed as citrate): highly hygroscopic

C1=CCC(c2cccnc2)NC1 (centres unmarked) [anatabine glutarate, 3-(1,2,3,6-tetrahydropyridin-2-yl)pyridine glutarate]
degradation by peak area (HPLC-UV) [2]: > 1%
mass gain on first sorption cycle ([3]; DVS 0-90% RH, first sorption cycle, majority of gain above 70% RH): 55%
mass gain in second sorption cycle ([3]; DVS 0-90% RH): 50%
mass gain in second sorption cycle ([3]; DVS 0-90% RH, listed as Anatabine glutarate): about 50%
mass gain between the starting weight and the end weight [3]: 5%
mass gain between the starting weight and the end weight ([3]; listed as Anatabine glutarate): about 5%
mass loss on first desorption cycle ([3]; DVS first desorption cycle): about 50%
mass above the starting mass after first desorption ([3]; DVS, end of first desorption): 5%
crystal form before and after DVS (XRPD comparison) ([3]; sample left overnight after DVS, recrystallized into a solid form): identical
visual assessment: color or evidence of deliquescence ([4]; 40° C./75% RH, glass vial with screw cap, T=0, 3 and 7 days): no change observed
TGA mass loss between 20-130° C. ([4]; T=7 days sample, 40° C./75% RH): 0.5%
TGA mass loss between 150° C. and 400° C. ([4]; T=7 days sample, 40° C./75% RH): 80%
evidence of degradation ([4]; accelerated conditions (40° C./75% RH) after 7 days): has not shown evidence of degradation
change in thermal stability [4, 7]: no change in thermal stability
change to the crystalline form (XRPD) [4, 7]: no change to the crystalline form
difference in TGA mass loss between T=0 and T=7 days ([4]; superposition of thermograms, 40° C./75% RH): 2%
visual assessment: color or evidence of deliquescence [5]: No change

C1=CCC(c2cccnc2)NC1 (centres unmarked) [anatabine, 3-[1,2,3,6-Tetrahydropyridin-2-yl]pyridine]
transcription mediated by nuclear factor κB (NFKB) (nuclear factor κB (NFKB)): reduces transcription
anti-inflammatory activity (STAT3 and NFkB signaling): has an anti-inflammatory activity
reversal of precipitated nicotine withdrawal [6]: does not reverse
rewarding effect in rodents trained to self-administer nicotine [6]: do not find anatabine to be rewarding
